Results on four compounds are retold here after PubChem BioAssay (NCI).

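All cell lines were grown in 96-well plates and treated with compound for 48 hours. TGI marks complete inhibition of growth.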 Where only a bound is given, the exact number is not on record here.

The first experiment relates to UACC-62 melanoma. Put plainly: DTP human tumour cell line panel, 48 h.
`CCN1CCC(O)(/C=C/c2ccc(C)cc2)C(C(=O)/C=C/c2ccc(C)cc2)C1` (stereo not drawn) displayed a concentration for total growth inhibition (TGI) of 12.3 µM.

For `CCn1sc2ccccc2c1=O`, the total growth inhibition concentration (TGI) worked out at 29.5 µM.

In the next experiment the test system is SF-539 CNS. Kind of experiment: DTP human tumour cell line panel, 48 h.
On to `COc1cccc2cc(C(=O)O)c(=O)oc12`, for which the TGI is above 100 µM.

Compound `Ic1cccc(/C=C/CN2CCN(CCOC(c3ccccc3)c3ccccc3)CC2)c1` showed a TGI of 39.8 µM.

Compound `CCN1CCC(O)(/C=C/c2ccc(C)cc2)C(C(=O)/C=C/c2ccc(C)cc2)C1` (stereo not drawn) displayed a total growth inhibition concentration (TGI) of 10.3 µM.

With `CCn1sc2ccccc2c1=O`, the TGI was 30.8 µM.

The next experiment concerns DU-145 prostate. Put plainly: DTP human tumour cell line panel, 48 h.
As to `COc1cccc2cc(C(=O)O)c(=O)oc12`, the TGI is above 100 µM.

As to `Ic1cccc(/C=C/CN2CCN(CCOC(c3ccccc3)c3ccccc3)CC2)c1`, the TGI amounted to 28.3 µM.

With `CCN1CCC(O)(/C=C/c2ccc(C)cc2)C(C(=O)/C=C/c2ccc(C)cc2)C1` (stereo not drawn), the TGI was determined as 25.2 µM.

The compound `CCn1sc2ccccc2c1=O` yielded a total growth inhibition concentration (TGI) of 49.6 µM.

The next experiment relates to HT29 colon. Kind of experiment: DTP human tumour cell line panel, 48 h.
As for `COc1cccc2cc(C(=O)O)c(=O)oc12`, the TGI is above 100 µM.

On to `Ic1cccc(/C=C/CN2CCN(CCOC(c3ccccc3)c3ccccc3)CC2)c1`, for which the TGI is 30.3 µM.

`CCN1CCC(O)(/C=C/c2ccc(C)cc2)C(C(=O)/C=C/c2ccc(C)cc2)C1` (stereo not drawn): the concentration for total growth inhibition (TGI) is 6.89 µM.

In the case of `CCn1sc2ccccc2c1=O`, the TGI was found to be 34 µM.

Another experiment relates to LOX IMVI melanoma. Put plainly: DTP human tumour cell line panel, 48 h.
On to `COc1cccc2cc(C(=O)O)c(=O)oc12`, for which the total growth inhibition concentration (TGI) was above 100 µM.

For `Ic1cccc(/C=C/CN2CCN(CCOC(c3ccccc3)c3ccccc3)CC2)c1`, the TGI turned out to be 26.8 µM.

Take `CCN1CCC(O)(/C=C/c2ccc(C)cc2)C(C(=O)/C=C/c2ccc(C)cc2)C1` (stereo not drawn): the concentration for total growth inhibition (TGI) came out at 2.59 µM.

Compound `CCn1sc2ccccc2c1=O` had a concentration for total growth inhibition (TGI) of 7.73 µM.

For a further experiment, the system named is CAKI-1 renal. Put plainly: DTP human tumour cell line panel, 48 h.
The compound `COc1cccc2cc(C(=O)O)c(=O)oc12` registered a total growth inhibition concentration (TGI) above 100 µM.

The compound `Ic1cccc(/C=C/CN2CCN(CCOC(c3ccccc3)c3ccccc3)CC2)c1` registered a TGI of 41.4 µM.

The compound `CCN1CCC(O)(/C=C/c2ccc(C)cc2)C(C(=O)/C=C/c2ccc(C)cc2)C1` (stereo not drawn) gave a TGI of 8.1 µM.

`CCn1sc2ccccc2c1=O`: the TGI turned out to be 11.4 µM.

The next experiment has as its system SNB-19 CNS. Kind of experiment: DTP human tumour cell line panel, 48 h.
`COc1cccc2cc(C(=O)O)c(=O)oc12` displayed a total growth inhibition concentration (TGI) above 100 µM.

`Ic1cccc(/C=C/CN2CCN(CCOC(c3ccccc3)c3ccccc3)CC2)c1` came in with a TGI of 34.9 µM.

In turn, `CCN1CCC(O)(/C=C/c2ccc(C)cc2)C(C(=O)/C=C/c2ccc(C)cc2)C1` (stereo not drawn) registered a TGI of 23.5 µM.

For the compound `CCn1sc2ccccc2c1=O`, the concentration for total growth inhibition (TGI) is 32.9 µM.

The next experiment has as its system NCI-H460 lung. Kind of experiment: DTP human tumour cell line panel, 48 h.
On to `COc1cccc2cc(C(=O)O)c(=O)oc12`, for which the TGI was above 100 µM.

With `Ic1cccc(/C=C/CN2CCN(CCOC(c3ccccc3)c3ccccc3)CC2)c1`, the TGI was found to be 32.4 µM.

With `CCN1CCC(O)(/C=C/c2ccc(C)cc2)C(C(=O)/C=C/c2ccc(C)cc2)C1` (stereo not drawn), the TGI was 16.7 µM.

In turn, `CCn1sc2ccccc2c1=O` registered a TGI above 100 µM.

The subject of another experiment is RXF 393 renal. Put plainly: DTP human tumour cell line panel, 48 h.
`COc1cccc2cc(C(=O)O)c(=O)oc12`: the TGI was above 100 µM.

Regarding `Ic1cccc(/C=C/CN2CCN(CCOC(c3ccccc3)c3ccccc3)CC2)c1`, the total growth inhibition concentration (TGI) is 27.5 µM.

The compound `CCN1CCC(O)(/C=C/c2ccc(C)cc2)C(C(=O)/C=C/c2ccc(C)cc2)C1` (stereo not drawn) gave a TGI of 10.6 µM.

In turn, `CCn1sc2ccccc2c1=O` had a TGI of 11.7 µM.

A further experiment relates to MOLT-4 leukemia. Put plainly: DTP human tumour cell line panel, 48 h.
As for `COc1cccc2cc(C(=O)O)c(=O)oc12`, the TGI is above 100 µM.

`Ic1cccc(/C=C/CN2CCN(CCOC(c3ccccc3)c3ccccc3)CC2)c1`: the total growth inhibition concentration (TGI) stood at 35.9 µM.

Compound `CCN1CCC(O)(/C=C/c2ccc(C)cc2)C(C(=O)/C=C/c2ccc(C)cc2)C1` (stereo not drawn) yielded a concentration for total growth inhibition (TGI) of 4.59 µM.

Consider `CCn1sc2ccccc2c1=O`, for which the concentration for total growth inhibition (TGI) was above 100 µM.

The subject of the next experiment is SNB-75 CNS. Kind of experiment: DTP human tumour cell line panel, 48 h.
The compound `COc1cccc2cc(C(=O)O)c(=O)oc12` displayed a total growth inhibition concentration (TGI) above 100 µM.

Take `Ic1cccc(/C=C/CN2CCN(CCOC(c3ccccc3)c3ccccc3)CC2)c1`: the concentration for total growth inhibition (TGI) was 37.6 µM.

The compound `CCN1CCC(O)(/C=C/c2ccc(C)cc2)C(C(=O)/C=C/c2ccc(C)cc2)C1` (stereo not drawn) displayed a TGI of 22 µM.

In turn, `CCn1sc2ccccc2c1=O` had a total growth inhibition concentration (TGI) of 26.6 µM.

In the next experiment the test system is NCI-H23 lung. Kind of experiment: DTP human tumour cell line panel, 48 h.
`COc1cccc2cc(C(=O)O)c(=O)oc12` came in with a TGI above 100 µM.

In turn, `Ic1cccc(/C=C/CN2CCN(CCOC(c3ccccc3)c3ccccc3)CC2)c1` had a concentration for total growth inhibition (TGI) of 40 µM.

In turn, `CCN1CCC(O)(/C=C/c2ccc(C)cc2)C(C(=O)/C=C/c2ccc(C)cc2)C1` (stereo not drawn) showed a TGI of 18.5 µM.

With `CCn1sc2ccccc2c1=O`, the TGI was determined as 34.7 µM.

The test system of a further experiment is MDA-MB-435. Kind of experiment: DTP human tumour cell line panel, 48 h.
Regarding `COc1cccc2cc(C(=O)O)c(=O)oc12`, the concentration for total growth inhibition (TGI) was above 100 µM.

As to `Ic1cccc(/C=C/CN2CCN(CCOC(c3ccccc3)c3ccccc3)CC2)c1`, the TGI worked out at 30.4 µM.

For `CCN1CCC(O)(/C=C/c2ccc(C)cc2)C(C(=O)/C=C/c2ccc(C)cc2)C1` (stereo not drawn), the concentration for total growth inhibition (TGI) came out at 8.75 µM.

`CCn1sc2ccccc2c1=O` returned a TGI of 5.82 µM.

A further experiment has as its system SN12C renal. Put plainly: DTP human tumour cell line panel, 48 h.
As to `COc1cccc2cc(C(=O)O)c(=O)oc12`, the concentration for total growth inhibition (TGI) is above 100 µM.

On to `Ic1cccc(/C=C/CN2CCN(CCOC(c3ccccc3)c3ccccc3)CC2)c1`, for which the total growth inhibition concentration (TGI) stood at 29.6 µM.

As to `CCN1CCC(O)(/C=C/c2ccc(C)cc2)C(C(=O)/C=C/c2ccc(C)cc2)C1` (stereo not drawn), the concentration for total growth inhibition (TGI) came out at 20.6 µM.

`CCn1sc2ccccc2c1=O` registered a concentration for total growth inhibition (TGI) of 22.7 µM.

In another experiment the test system is NCI-H226 lung. Put plainly: DTP human tumour cell line panel, 48 h.
The compound `COc1cccc2cc(C(=O)O)c(=O)oc12` came in with a TGI above 100 µM.

Turning to `Ic1cccc(/C=C/CN2CCN(CCOC(c3ccccc3)c3ccccc3)CC2)c1`, the TGI was found to be 40.2 µM.

`CCN1CCC(O)(/C=C/c2ccc(C)cc2)C(C(=O)/C=C/c2ccc(C)cc2)C1` (stereo not drawn) came in with a total growth inhibition concentration (TGI) of 29 µM.

`CCn1sc2ccccc2c1=O` returned a TGI of 50.7 µM.
